# Experimental data taken from US7566718B2, “Amine-linked pyridyl and phenyl substituted piperazine-piperidines with CXCR3 antagonist activity” (Schering Corporation, priority 2005, dated 2009).
# Where two headings read alike, the source gives them in different places.
# Biological target: T1, human CXCR3 (N-delta 4) (Homo sapiens, UniProt P49682)
# T1 construct: CD8 leader (N); Flag tag; expressed in transfected cells; membrane preparation
# T1 sequence (P49682 5-368 limits assumed): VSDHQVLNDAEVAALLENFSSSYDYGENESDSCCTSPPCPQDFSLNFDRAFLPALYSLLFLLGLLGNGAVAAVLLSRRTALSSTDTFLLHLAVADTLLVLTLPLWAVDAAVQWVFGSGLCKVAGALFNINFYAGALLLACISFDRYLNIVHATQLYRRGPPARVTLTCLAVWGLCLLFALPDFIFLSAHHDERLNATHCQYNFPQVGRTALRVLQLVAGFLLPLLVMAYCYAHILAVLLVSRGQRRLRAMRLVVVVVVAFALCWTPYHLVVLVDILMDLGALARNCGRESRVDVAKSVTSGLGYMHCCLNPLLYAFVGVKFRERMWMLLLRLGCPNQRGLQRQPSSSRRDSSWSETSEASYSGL
# Assay: Human CXCR3 (N-delta 4) scintillation proximity assay (SPA), [125I] IP-10 binding to Ba/F3-hCXCR3 membranes
# Description: The inventive compounds can readily be evaluated to determine activity at the CXCR3 receptors by known methods, such as, for example, development of a human CXCR3 (N-delta 4) Binding Assay.
# The DNA encoding human CXCR3 was cloned by PCR using human genomic DNA (Promega, Madison, Wis.) as a template. The PCR primers were designed based on the published sequence of human orphan receptor GPR9 (1) with incorporated restriction sites, a Kozak consensus sequence, CD8 leader and Flag tag. The PCR product was subcloned into the mammalian expression vector pME18Sneo, a derivative of the SR-alpha expression vector (designated as pME18Sneo-hCXCR3 (N-delta 4).
# IL-3-dependent mouse pro-B cells Ba/F3 were transfected by electroporation in 0.4 ml Dulbecco's PBS containing 4×10^6 cells with 20 μg of pME18Sneo-hCXCR3 (N-delta 4) plasmid DNA. Cells were pulsed at 400 Volts, 100 OHMs, 960 μFd. The transfected cells were under selection with 1 mg/ml G418 (Life Technologies, Gaithersburg, Md.). G418-resistant Ba/F3 clones were screened for CXCR3 expression by specific binding of [^125I] IP-10 (NEN Life Science Products, Boston, Mass.).
# Ba/F3 cells expressing human CXCR3 (N-delta 4) were pelleted and resuspended in the lysis buffer containing 10 mM HEPES, pH 7.5 and Complete® protease inhibitors (1 tablet per 100 ml) (Boehringer Mannheim, Indianapolis, Ind.) at a cell density of 20×10^6 cells per ml. After 5 minute incubation on ice, cells were transferred to 4639 cell disruption bomb (Parr Instrument, Moline, Ill.) and applied with 1,500 psi of nitrogen for 30 minutes on ice. Large cellular debris was removed by centrifugation at 1,000×g. Cell membrane in the supernatant was sedimented at 100,000×g. The membrane was resuspended in the lysis buffer supplemented with 10% sucrose and stored at −80° C. Total protein concentration of the membrane was determined by BCA method from Pierce (Rockford, Ill.).
# Human CXCR3 (N-Delta 4) Scintillation Proximity Assay (SPA):
# For each assay point, 2 μg of membrane was preincubated for 1 hr with 300 μg wheat germ agglutinin (WGA) coated SPA beads (Amersham, Arlington Heights, Ill.) in the binding buffer (50 mM HEPES, 1 mM CaCl2, 5 mM MgCl2, 125 mM NaCl, 0.002% NaN3, 1.0% BSA) at room temperature. The beads were spun down, washed once, resuspended in the binding buffer and transferred to a 96-well Isoplate (Wallac, Gaithersburg, Md.). 25 pM of [^125I] IP-10 with tested compounds in a series of titration were added to start the reaction. After 3 hr reaction at room temperature, the amount of [^125I] IP-10 bound to the SPA beads was determined with a Wallac 1450 Microbeta counter.
# [1] = IC50 rating, [125I] IP-10 displacement, human CXCR3, read-out: IC50
Compound,IC50 [1] [nM],"IC50 (value given in the text as example, read-out: IC50 value) [nM]"
C[C@@H]1CN(C2CCN(Cc3ccc(Cl)cc3)CC2)[C@@H](C)CN1c1ncc(NC(=O)NCC(F)(F)F)cc1Cl [Compound 197],> 100,–
CC[C@H]1CN(c2ccc(Nc3c(NC4CC4)c(=O)c3=O)cc2Cl)CCN1C1CCN(Cc2ccc(Cl)cc2F)CC1 [Compound 82],< 25,–
C[C@@H]1CN(c2ncc(Nc3c(NCC(F)(F)F)c(=O)c3=O)cc2Cl)[C@@H](C)CN1C1CCN(C/C=C/c2ccccc2)CC1 [Compound 115],> 100,–
CC[C@H]1CN(c2ncc(Nc3c(N[C@@H](c4ccc(C)o4)C(C)(C)C)c(=O)c3=O)cc2Cl)CCN1C1CCN([C@H](CO)c2ccc(Cl)cc2)CC1 [Compound 109],25 to 100,–
CC1CCCC(N2CCC(N3C[C@H](C)N(c4ncc(Nc5c(NCC(F)(F)F)c(=O)c5=O)cc4Cl)C[C@H]3C)CC2)C1 (stereo partly shown) [Compound 176],> 100,–
CC(=O)Nc1cnc(N2CCN(C3CCN(Cc4ccc(Cl)cc4)CC3)[C@@H](C)C2)c(Cl)c1 [Compound 181],< 25,–
C[C@@H]1CN(c2ncc(Nc3c(NCC(F)(F)F)c(=O)c3=O)cc2Cl)[C@@H](C)CN1C1CCN(Cc2ccc(C#N)cc2)CC1 [Compound 114],> 100,–
CC[C@H]1CN(c2ncc(NS(N)(=O)=O)cc2Cl)CCN1C1CCN([C@H](C(N)=O)c2ccc(Cl)cc2)CC1 [Compound 35],25 to 100,–
C[C@H]1CN(c2ncc(NC(=O)C3CC3)cc2Cl)CCN1C1CCN(Cc2ccc(Cl)cc2)CC1 [Compound 184],< 25,–
C[C@@H]1CN(C2CCN(Cc3ccc(Cl)cc3F)CC2)[C@@H](C)CN1c1ncc([N+](=O)[O-])cc1Cl [Compound 217],> 100,–
COc1ccccc1CN1CCC(N2C[C@H](C)N(c3ncc(Nc4c(NCC(F)(F)F)c(=O)c4=O)cc3Cl)C[C@H]2C)CC1 [Compound 154],> 100,–
CC[C@H]1CN(c2ncc(NS(C)(=O)=O)cc2Cl)CCN1C1CCN(C(C(N)=O)c2ccc(Cl)cc2)CC1 (stereo partly shown) [Compound 12],< 25,–
CC[C@H]1CN(c2ncc(NC(=O)Oc3ccccc3)cc2Cl)CCN1C1CCN(Cc2ccc(Cl)cc2F)CC1 [Compound 189],25 to 100,–
CC(C)CCN1CCC(N2C[C@H](C)N(c3ncc(Nc4c(NCC(F)(F)F)c(=O)c4=O)cc3Cl)C[C@H]2C)CC1 [Compound 113],> 100,–
CC[C@H]1CN(c2ncc(Nc3c(NC4CC4)c(=O)c3=O)cc2Cl)CCN1C1CCN([C@@H](C(=O)NC)c2ccc(Cl)cc2)CC1 [Compound 101],< 25,–
C[C@H]1CN(c2ncc(NC(=O)Nc3ccc(F)cc3)cc2Cl)CCN1C1CCN(Cc2ccc(Cl)cc2)CC1 [Compound 199],> 100,–
C[C@@H]1CN(C2CCN(Cc3ccc(Cl)cc3F)CC2)[C@@H](C)CN1c1ncc(N)cc1N [Compound 233],> 100,–
C[C@@H]1CN(c2ncc(Nc3c(NCC(F)(F)F)c(=O)c3=O)cc2Cl)[C@@H](C)CN1C1CCN(Cc2ccc(Br)cc2)CC1 [Compound 125],> 100,–
CC[C@H]1CN(c2ncc(N(C)c3c(NC4CC4)c(=O)c3=O)cc2Cl)CCN1C1CCN(C(CO)c2ccc(Cl)cc2)CC1 (stereo partly shown) [Compound 108],25 to 100,–
C[C@@H]1CN(c2ncc(Nc3c(NCC(F)(F)F)c(=O)c3=O)cc2Cl)[C@@H](C)CN1C1CCN(Cc2ccc(-c3ccccc3)cc2)CC1 [Compound 135],> 100,–
C[C@H]1CN(c2nc(Cl)c(N)cc2Cl)CCN1C1CCN(Cc2ccc(Cl)cc2F)CC1 [Compound 228],> 100,–

# Other lines, results leading:
IC50 [1] [nM],"IC50 (value given in the text as example, read-out: IC50 value) [nM]",Compound
< 25,–,CC[C@H]1CN(c2ncc(N)cc2Cl)CCN1C1CCN(Cc2ccc(Br)cc2F)CC1 [Compound 203]
< 25,–,CC[C@H]1CN(c2ncc(NC(=O)NC)cc2Cl)CCN1C1CCN(Cc2ccc(Cl)cc2F)CC1 [Compound 182]
> 100,–,CC[C@H]1CN(c2ncc([N+](=O)[O-])cc2Cl)CCN1C1CCN(Cc2ccc(Cl)cc2-c2nnc(Br)[nH]2)CC1 [Compound 230]
< 25,–,CC[C@H]1CN(c2ncc(Nc3c(NC4CC4)c(=O)c3=O)cc2Cl)CCN1C1CCN(Cc2ccc(Cl)cc2F)CC1 [Compound 73]
< 25,–,CC[C@H]1CN(c2ncc(NS(C)(=O)=O)cc2Cl)CCN1C1CCN(Cc2ccc(Cl)cc2C#N)CC1 [Compound 23]
< 25,–,CC[C@H]1CN(c2ncc(NS(C)(=O)=O)cc2Cl)CCN1C1CCN(Cc2ccc(C)cc2C)CC1 [Compound 20]
< 25,–,CC[C@H]1CN(c2ncc(NC3=NS(=O)(=O)N=C3NCCO)cc2Cl)CCN1C1CCN(Cc2ccc(OC(F)(F)F)cc2)CC1 [Compound 239]
< 25,–,CC[C@H]1CN(c2ncc(NC3=NS(=O)(=O)N=C3NC3CC3)cc2Cl)CCN1C1CCN(Cc2ccc(Cl)cc2C(=N)NO)CC1 [Compound 236]
25 to 100,–,CC[C@H]1CN(c2ncc(NS(C)(=O)=O)cc2Cl)CCN1C1CCN(Cc2ccc(Cl)cc2O)CC1 [Compound 34]
< 25,–,CC[C@H]1CN(c2ncc(NS(C)(=O)=O)cc2Cl)CCN1C1CCN(Cc2ccc(Cl)cc2)CC1 [Compound 6]
< 25,–,CC[C@H]1CN(c2ncc(NC3=NS(=O)(=O)N=C3NC3CC3)cc2Cl)CCN1C1CCN(Cc2ccc(Cl)cc2F)CC1 [Compound 235]
> 100,–,CC[C@H]1CN(c2ncc(NS(C)(=O)=O)cc2Cl)CCN1C1CCN(Cc2cc(C)c(C)s2)CC1 [Compound 43]
> 100,–,CC[C@H]1CN(c2ncc(NC(=N)N)cc2Cl)CCN1C1CCN(Cc2ccc(Cl)cc2F)CC1 [Compound 221]
> 100,–,CCCCNC1=NS(=O)(=O)N=C1Nc1cnc(N2CCN(C3CCN(Cc4ccc(Cl)cc4C#N)CC3)[C@@H](CC)C2)c(Cl)c1 [Compound 273]
< 25,–,CC[C@H]1CN(c2ncc(NC3=NS(=O)(=O)N=C3N(C)C)cc2Cl)CCN1C1CCN(Cc2ccc(Cl)cc2F)CC1 [Compound 237]
> 100,–,CC[C@H]1CN(c2ncc(Nc3c(N(C)C)c(=O)c3=O)cc2Cl)CCN1C1CCN([C@H](C(=O)NC)c2ccc(Cl)cc2)CC1 [Compound 128]
< 25,–,CC[C@H]1CN(c2ncc(NC3=NS(=O)(=O)N=C3NC3CC3)cc2Cl)CCN1C1CCN(Cc2ccc(C#N)cc2)CC1 [Compound 248]
> 100,–,CC[C@H]1CN(c2ncc(NS(C)(=O)=O)cc2Cl)CCN1C1CCN(Cc2ccc(Cl)cc2NS(C)(=O)=O)CC1 [Compound 52]
< 25,–,CC[C@H]1CN(c2ncc(NC(=O)NC3CC3)cc2Cl)CCN1C1CCN(Cc2ccc(Cl)cc2F)CC1 [Compound 185]
< 25,–,CC[C@H]1CN(c2ncc(Nc3c(NC4CC4)c(=O)c3=O)cc2Cl)CCN1C1CCN(Cc2ccc(Cl)cc2C(=O)OC)CC1 [Compound 91]
> 100,–,CC[C@H]1CN(c2ncc(NC3=NS(=O)(=O)N=C3NC(C)(C)C)cc2Cl)CCN1C1CCN(Cc2ccc(Cl)cc2C#N)CC1 [Compound 267]
25 to 100,–,CC[C@H]1CN(c2ncc(NS(C)(=O)=O)cc2Cl)CCN1C1CCN(Cc2ccc(Cl)cc2-c2nnn[nH]2)CC1 [Compound 36]
> 100,–,CC[C@H]1CN(c2ncc(NS(C)(=O)=O)cc2Cl)CCN1C1CCN(Cc2ccc(Br)cc2OC)CC1 [Compound 65]
> 100,–,C[C@H]1CN(c2ncc(Nc3ncccn3)cc2Cl)CCN1C1CCN(Cc2ccc(Cl)cc2F)CC1 [Compound 223]
> 100,–,CC[C@H]1CN(c2ncc(NC3=NS(=O)(=O)N=C3NC3CC3)cc2Cl)CCN1C1CCN(Cc2ccc(Cl)cc2-c2nnc(Br)[nH]2)CC1 [Compound 270]
25 to 100,–,CC[C@H]1CN(c2ncc(NC3=NS(=O)(=O)N=C3NC3CC3)cc2Cl)CCN1C1CCN(Cc2ccc(Cl)cc2C#N)CC1 [Compound 260]
< 25,0.8,CC[C@H]1CN(c2ncc(NS(C)(=O)=O)cc2Cl)CCN1C1CCN(Cc2ccc(Cl)cc2OC)CC1 [Compound 1]
